Test [1] addresses T1, PRMT5-MEP50 enzyme (Homo sapiens, UniProt O14744).
T1 construct: One virus expresses full length human PRMT5 with Flag-tag at N-terminus; Flag (N); purchased Charles River (Argenta); host or cells: insect cells (Sf9), baculovirus co-infection
Kind of test: In vitro assay 1a: high throughput mass spectrometer assay of SAH formation, 10 nM enzyme, 60 min. Type of test: biochemical. The following applies: averaged values, PRMT5-MEP50, 10 nM enzyme, read-out: pIC50 Assay 1a (converted). The text has this: (§1) Experimental Procedures In Vitro Assay (Assay 1a and 1b)
(§2) PRMT5-MEP50 enzyme was purchased from Charles River (Argenta). The enzyme complex was produced in insect cells (Sf9) infected simultaneously with two baculoviruses. One virus expresses full length human PRMT5 with Flag-tag at N-terminus, the second virus expresses full length MEP50 with His6-TEV cleavage at N-terminus. The protein was affinity purified using anti-Flag (M2) beads eluted with 3×FLAG peptide, followed by His-Select eluted with 0.5M imidazole. Eluted protein was then dialysed against tris-buffered saline (TBS) (pH 8.0) containing 20% glycerol and 3 mM dithiothreitol (DTT).
(§3) Full-length untagged human recombinant histone H2A (residues 1-130, Genbank Accession #NM_021052 MW=14.1 kDa) expressed in E. coli was purchased from Reaction Biology Corporation, Cat #HMT-11-146. Reagents used for making reaction buffer or stopping reaction were purchased including Tris base (Sigma Cat #T-1503), NaCl (Sigma Cat #RGF-3270), MgCl2 (Sigma Cat #M0250), DTTI (Invitrogen Cat #15508-013) and Formic Acid (Riedel deHaen, Cat #33015)
(§4) High Throughput Mass Spectrometer Assay
(§5) PRMT5 catalyzes the sequential methylations of the terminal nitrogen atoms on the guanidine groups of arginine residues within proteins using co-substrate S-adenosyl-L-methionine (AdoMet, SAM), forming mono-methyl (MMA), symmetric-dimethyl arginine (sDMA) and S-adenosyl-L-homocysteine (AdoHcy, SAH). The enzyme activity was determined by following the product SAH formation using high throughput mass spectrometry (Agilent Rapidfire 300 System coupled to a Sciex 4000 series QTrap® triple-quad MS/MS). The reaction buffer was 20 mM Tris-HCl, pH 8.5, 50 mM NaCl, 5 mM MgCl2 and 1 mM DTT. The reaction activity was stopped using 1% formic acid (final concentration).
(§6) The IC50 Studies were performed using eleven point dosing series made for each compound by serially diluted 1:2 in dimethyl sulfoxide (DMSO), with point 12 being a DMSO control. Compounds were first spotted to plates, and followed by addition of 2 μM SAM and 0.6 μM H2A (histone H2A) solution mixture. The same volume of enzyme solution was added to initiate the enzymatic reactions. The final concentrations of the reaction are at 1 μM SAM, 0.3 μM H2A and 10 nM enzyme (assay 1a) or 1.25 nM enzyme (assay 1b). The reaction was incubated at 30° C. for 60 minutes (min) when 10 nM enzyme was used and for 120 min when 1.25 nM enzyme was used. Subsequently, the reaction was quenched by addition of formic acid to a final concentration of 1%. The inhibitions of SAH formation in the presence of compounds were calculated as a percentage of the control relative to the uninhibited reaction as a function of inhibitor concentration. The data were fit as follows: Y=Bottom+(Top−Bottom)/(1+10^((log IC50−X)*h))
(§7) where IC50 is the inhibitor concentration (same unit as X) at 50% inhibition and h is the Hill slope. Y is percent of inhibition, X is log of compound concentration. Bottom and Top are the plateaus in same units as Y.

The test system of test [2] is nuclear symmetric Arginine dimethylation in A549 cells. Kind of test: PD assay (assay 2): inhibition of nuclear symmetric Arginine dimethylation (SYM10 immunohistochemistry), 48 h. Type of test: cell-based. The note with it: PD assay, A549 cells, symmetric Arginine dimethylation; for IC50: Homo sapiens, A549, averaged values, read-out: pIC50 Assay 2 (converted). The procedure: Experimental Procedure PD Assay (Assay 2)
A549 cells (ATCC, Cat #CCL-185) were cultured in Dulbecco's Modified Eagle's Medium (DMEM) (Sigma, Cat #D5796), supplemented with 10% Fetal Calf Serum (FCS) (HyClone™, Cat #SV30160.03), 100 mM Sodium Pyruvate (Sigma, Cat #S8636), 200 mM L-Glutamine (Sigma, Cat #G7513) and 50 mg/mL gentamycin (Gibco, Cat #15750-037).
Reagents used for buffers were purchased: Dulbecco's phosphate buffered saline (DPBS) without Ca/Mg (Sigma, Cat #D8537), phosphate buffered saline (PBS) 10× (Roche, Cat #11 666 789 001), Formalin solution 10% (Sigma, HT50-1-128-4L), Methanol 100% (Sigma, Cat #32213-2.5L), Triton X-100 (Acros, Cat #215680010), Bovine Serum Albumin (BSA) (Sigma, Cat #A2153), Alexa fluor 488 goat anti-rabbit antibody (Life Technologies, Cat #A11034), HCS CellMask Deep Red Stain (Life Technologies, Cat #H32721), Hoechst Stain (Life Technologies, Cat #33258), Anti-dimethyl-Arginine, sym (SYM10) antibody (Millipore, 07-412).
Immunohistochemistry Procedure
Cells were plated at 400 cells/40 μL/well in 384 well black μplates clear bottom (Perkin Elmer) and overnight incubated at 37° C., 5% CO2. […] 80 nL of the respective dilution of the compounds was added using the Labcyte POD 810 (Labcyte) reaching a final DMSO concentration of 0.2% in cell culture. After an incubation period of 48 h at 37° C. and 5% CO2, cells were fixed in 10% formalin solution for 15 min at room temperature and 20 min in ice-cold methanol, after which they were washed 3× in DPBS. Subsequently, the cells were blocked for 1 h in blocking buffer (PBS+1% BSA and 0.5% Triton X-100) and incubated overnight at 4° C. with the SYM10 antibody diluted 1/2000 in blocking buffer. The cells were washed 3× with washing buffer (PBS+0.1% Triton X-100) and incubated with the Alexa fluor 488 goat anti-rabbit antibody diluted 1/200 in blocking buffer for 1 h at room temperature. Subsequently, they were washed 3× with washing buffer and incubated for 30 min at room temperature with PBS containing a 1/5000 dilution of Hoechst Stain and a 1/5000 dilution of the HCS CellMask Deep Red Stain. After a final wash with PBS, the plates were imaged using the 10×W lens of the Opera® system (Perkin Elmer Life Sciences) using following settings (values in nm):
In the above equations, the following variable names are used: […]
In the above equations, the following controls were used for normalization: […]
Low control: minimum level of symmetrically dimethylated Arginines (cells treated with reference compound at 10 μM).
High control: maximum level of symmetrically dimethylated Arginines (DMSO treated cells).
IC50 and pIC50 (−log IC50) values were calculated using the appropriate software.
The pIC50 values in the Table below are averaged values (Co. No. means compound number; n.d. means not determined).

Test [3] concerns the target T1, PRMT5-MEP50 enzyme. Kind of test: In vitro assay 1b: high throughput mass spectrometer assay of SAH formation, 1.25 nM enzyme, 120 min. The following applies: averaged values; PRMT5-MEP50, 1.25 nM enzyme, 120 min; read-out: pIC50 Assay 1b (converted). Type of test: biochemical.
Excerpt: as §1, §2, §3, §4, §5, §6, §7

Structures are written as SMILES. Where only a bound is given, the exact number is not on record here.

T1 sequence (O14744 whole entry): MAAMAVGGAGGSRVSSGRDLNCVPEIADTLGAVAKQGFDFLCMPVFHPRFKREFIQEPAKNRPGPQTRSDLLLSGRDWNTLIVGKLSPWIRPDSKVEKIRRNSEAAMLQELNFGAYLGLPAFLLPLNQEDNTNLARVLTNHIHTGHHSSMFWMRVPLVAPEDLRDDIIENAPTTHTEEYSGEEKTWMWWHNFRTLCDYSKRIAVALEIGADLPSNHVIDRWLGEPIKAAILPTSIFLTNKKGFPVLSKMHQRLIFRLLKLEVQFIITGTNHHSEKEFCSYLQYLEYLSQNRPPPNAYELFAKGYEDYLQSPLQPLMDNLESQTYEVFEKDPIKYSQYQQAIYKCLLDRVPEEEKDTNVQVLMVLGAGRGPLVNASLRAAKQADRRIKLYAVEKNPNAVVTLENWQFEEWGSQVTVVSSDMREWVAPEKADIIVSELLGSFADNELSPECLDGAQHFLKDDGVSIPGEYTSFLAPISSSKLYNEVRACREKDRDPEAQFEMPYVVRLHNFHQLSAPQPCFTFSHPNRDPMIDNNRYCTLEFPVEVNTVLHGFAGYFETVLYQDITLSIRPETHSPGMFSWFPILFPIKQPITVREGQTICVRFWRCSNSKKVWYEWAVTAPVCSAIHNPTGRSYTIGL
T1 sequence (Q9BQA1 whole entry partner): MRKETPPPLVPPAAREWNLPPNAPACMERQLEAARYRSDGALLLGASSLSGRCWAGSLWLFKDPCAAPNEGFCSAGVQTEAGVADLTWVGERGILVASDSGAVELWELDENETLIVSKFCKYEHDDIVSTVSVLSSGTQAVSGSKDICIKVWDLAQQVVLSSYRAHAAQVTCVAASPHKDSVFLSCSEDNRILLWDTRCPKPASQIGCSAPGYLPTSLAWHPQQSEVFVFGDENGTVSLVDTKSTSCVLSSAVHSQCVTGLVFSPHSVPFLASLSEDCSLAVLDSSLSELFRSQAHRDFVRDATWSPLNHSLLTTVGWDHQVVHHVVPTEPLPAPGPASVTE

In the case of `C=Cc1cnc2cc(OC[C@H]3O[C@@H](n4ccc5c(N)ncnc54)[C@H](O)[C@@H]3O)ccc2c1` [Compound 253], on PRMT5-MEP50 enzyme [1], the IC50 was 20 nM.
Consider `CC(Oc1ccc2cccnc2c1)[C@H]1O[C@@H](n2ccc3c(N)ncnc32)[C@H](O)[C@@H]1O` (single isomer, unassigned) [Compound 67], for which, at PRMT5-MEP50 enzyme [1], the IC50 is 100 nM. Also, the “pIC50 Assay 2” value in test [2] (averaged values) came to 6.5.
`Nc1ncnc2c1ccn2[C@@H]1O[C@H](CSc2ccc3cccnc3c2)[C@@H](O)[C@H]1O` [Compound 48]: the IC50 on PRMT5-MEP50 enzyme [1] is 100 nM; in test [2] it was 398 nM.
For `Nc1ncnc2c1ccn2[C@@H]1O[C@H](COc2ccc3ccc(Cl)nc3c2)[C@@H](O)[C@H]1O` [Compound 20] the same measures were 2000 nM and 6310 nM.
On to `Nc1ncnc2c1ccn2[C@@H]1O[C@H](COc2ccc3cc(Br)cnc3c2Cl)[C@@H](O)[C@H]1O` [Compound 94], for which the results for the IC50 (at PRMT5-MEP50 enzyme [1]; in test [2]) were 1000 nM and around 1000 nM, respectively.
For `Cc1c(OC[C@H]2O[C@@H](n3ccc4c(N)ncnc43)[C@H](O)[C@@H]2O)ccc2cccnc12` [Compound 39], in that order: 2510 nM and 2000 nM.
For `Nc1ncnc2c1ccn2[C@@H]1O[C@H](COc2ccc3ccccc3c2)[C@@H](O)[C@H]1O` [Compound 9] the same measures were 3160 nM and above 20000 nM.
As to `Nc1ncnc2c1ccn2[C@@H]1O[C@H](COc2cnc3cccnc3c2)[C@@H](O)[C@H]1O` [Compound 14], the IC50 was 1260 nM on PRMT5-MEP50 enzyme [1] and above 20000 nM in test [2].
Turning to `Nc1ncnc2c1ccn2[C@@H]1O[C@H](COc2cc3ncc(Br)cc3cc2Cl)[C@@H](O)[C@H]1O` [Compound 92], the IC50 was 63.1 nM at PRMT5-MEP50 enzyme [1] and 794 nM in test [2].
Turning to `Nc1ncnc2c1ccn2[C@@H]1O[C@H](COc2cccc3ccncc23)[C@@H](O)[C@H]1O` [Compound 7], the IC50 at PRMT5-MEP50 enzyme [1] is 1260 nM; in test [2] it was around 17400 nM.
For `Nc1ncnc2c1ccn2[C@@H]1O[C@H](COc2ccc3nccnc3c2)[C@@H](O)[C@H]1O` [Compound 15], in that order: 1000 nM and above 3980 nM.
For `Nc1ncnc2c1ccn2[C@@H]1C[C@H](/C=C/c2ccc3cc(Cl)cnc3c2)[C@@H](O)[C@H]1O` [Compound 57] the same measures were 31.6 nM and around 151 nM.
For `Nc1ccc2ccc(CC[C@H]3C[C@@H](n4ccc5cncnc54)[C@H](O)[C@@H]3O)cc2n1` [Compound 77] the same measures were 0.501 nM and below 1.17 nM.
With `COc1ncnc2c1ccn2[C@@H]1C[C@H](CCc2ccc3ccc(N)nc3c2)[C@@H](O)[C@H]1O` [Compound 79], the IC50 at PRMT5-MEP50 enzyme [1] is 0.398 nM; in test [2], below 1.17 nM.
Take `CNc1ncnc2c1ccn2[C@@H]1C[C@H](CCc2ccc3cc(C(F)(F)F)c(N)nc3c2)[C@@H](O)[C@H]1O` [Compound 201]: the values for the IC50 (in test [2]; on PRMT5-MEP50 enzyme [3]) were 39.8 nM and 1.58 nM, respectively.
As to `CNc1ncnc2c1ccn2[C@@H]1C[C@H](COc2ccc3cc(Br)c(N)nc3c2)[C@@H](O)[C@H]1O` [Compound 237], the IC50 in test [2] is 6.31 nM; on PRMT5-MEP50 enzyme [3], 1.58 nM.
For `CNc1ncnc2c1ccn2[C@@H]1C[C@H](CCc2ccc3ccc(NCC(F)F)nc3c2)[C@@H](O)[C@H]1O` [Compound 184], in that order: 63.1 nM and 2 nM.
For `CNc1ncnc2c1ccn2[C@@H]1C[C@H](CCc2ccc3ccc(NC(C)C)nc3c2)[C@@H](O)[C@H]1O` [Compound 206], in that order: 25.1 nM and 1.58 nM.
Regarding `CC(C)Nc1ncnc2c1ccn2[C@@H]1C[C@H](CCc2ccc3cc(Cl)c(N)nc3c2)[C@@H](O)[C@H]1O` [Compound 196], the IC50 in test [2] was 100 nM; on PRMT5-MEP50 enzyme [3] it was 2 nM.
For `Nc1nc2cc(CC[C@H]3C[C@@H](n4ccc5nccnc54)[C@H](O)[C@@H]3O)ccc2cc1Cl` [Compound 250], in that order: 200 nM and 31.6 nM.
For the compound `Nc1ncnc2c1ccn2[C@@H]1C[C@H](COc2ccc3cccnc3c2)[C@@H](O)[C@H]1O` [Compound 46], the IC50 in test [2] is 126 nM; on PRMT5-MEP50 enzyme [3], 63.1 nM.
For `C=Cc1ncnc2c1ccn2[C@@H]1C[C@H](CCc2ccc3ccc(NCC4CC4)nc3c2)[C@@H](O)[C@H]1O` [Compound 211], in that order: around 2570 nM and 3.16 nM.
For `CNc1ccc2ccc(CC[C@H]3C[C@@H](n4ccc5c(NC)ncnc54)[C@H](O)[C@@H]3O)cc2n1` [Compound 178], in that order: 10 nM and 0.794 nM.
`Nc1nc2cc(CC[C@H]3C[C@@H](n4ccc5cnc(Cl)nc54)[C@H](O)[C@@H]3O)ccc2cc1Cl` [Compound 241]: the IC50 was below 1.17 nM in test [2] and 2.51 nM at PRMT5-MEP50 enzyme [3].
For `Nc1ncnc2c1ccn2[C@@H]1C[C@H](CCc2ccc3ccc(NC4CCC4)nc3c2)[C@@H](O)[C@H]1O` [Compound 156], in that order: below 1.17 nM and 0.316 nM.
For `Nc1ncnc2c1ccn2[C@@H]1O[C@H](COc2ccc3cccnc3c2)[C@@H](O)[C@H]1O` [Compound 1] the same measures were 79.4 nM and 12.6 nM.
Regarding `Nc1nc2cc(CC[C@H]3C[C@@H](n4ccc5cccnc54)[C@H](O)[C@@H]3O)ccc2cc1Cl` [Compound 249], the IC50 is 501 nM in test [2] and 20 nM on PRMT5-MEP50 enzyme [3].
Turning to `CNc1ncnc2c1ccn2[C@@H]1C[C@H](CCc2ccc3cc(Cl)c(N)nc3c2)[C@@H](O)[C@H]1O` [Compound 194], the IC50 in test [2] was 1.58 nM; on PRMT5-MEP50 enzyme [3], 0.631 nM.

These data come from patent US11318157B2, “6-6 bicyclic aromatic ring substituted nucleoside analogues for use as PRMT5 inhibitors” (Janssen Pharmaceutica NV, priority 2015, dated 2022).
